# Laboratory results from a melting point compilation (Tetko et al.; mined from patent text by program, amines drawn as free bases though some values may be those of a salt).
row,SMILES,melting point [°C]
1,C[C@H]1CCCC(C)(C)[C@@H]1[C@H](O)c1ccc(C#N)c(F)c1,114 to 116
2,OCCC1=Cc2ccccc2C1,47 to 49
3,C=CCN1CCC2(CC1)CSC1=C(O2)c2ccccc2C(=O)C1=O,166 to 168
4,COC(CC(=O)c1ccccc1)c1ccc(Cl)cc1F (centres undefined),59 to 61
5,COc1ccc(N2CCN(CCC3OCCc4cc([Si](C)(C)C)ccc43)CC2)cc1 (centres undefined),78 to 80
6,CCc1c(C(=O)c2cc(C)cc(C)c2)n(C/C=C/COC(C)=O)c(=O)[nH]c1=O,152 to 153
7,CCOC(=O)CCC(CC(=O)c1ccc(N)cc1)C(=O)OCC (racemic),58 to 61
8,CC(C)(C)OC(=O)C=Cc1ccc(NC(=O)C=C2CC(C(=O)O)Nc3ccccc32)cc1 (racemic),140
9,OC1CCN(c2cc3nc(S)[nH]c3cc2F)CC1,268 to 269
10,COc1ccc(-c2nc(NC(C)=O)sc2-c2cccnc2)cc1,208 to 210
11,N#Cc1ccc2ccc(CBr)cc2c1,110 to 116
12,Fc1cccc(F)c1-c1ccc2cccnc2n1,100 to 103
13,CCCCCCCCCC(=O)OC1CCC2C3CCC4=CC(=O)CCC4C3CCC12CC (centres undefined),97 to 97.5
14,Cc1ccc(-c2ccc3c(c2)C=CCCO3)cc1,98 to 100
15,COc1ccc(CS(=O)(=O)/C(=C/c2ccc(Br)cc2)C(=O)c2ccc(Br)cc2)cc1,146 to 150
16,Cc1cccc(-c2n[nH]cc2-c2ccc(F)c(-c3ccc(S(N)(=O)=O)c(F)c3)c2)n1,119 to 121
17,CCOC(=O)CCCC(=NO)c1ccccc1,28 to 30
18,COc1ccc(C=CC(C)=O)cc1OC,78 to 80
19,CCOC(=O)C(=CNC1CC1)C(=O)c1c(F)c(F)c(F)c(F)c1N(C)C,122 to 124
20,CC(C)(C)N1C(=O)c2cnc(-c3ccccc3)nc2Nc2ccccc21,221 to 222
21,CCCOc1ccc(/C=C(\C)C(=O)O)cc1,171
22,COc1ccc(CN2CC(NC(=O)c3ccc(OCC=C(C)CCC=C(C)C)cc3)CN2Cc2ccc(OC)cc2)cc1,123 to 124
23,C(=CCN1C(c2ccccc2)CCCC1c1ccccc1)CN1C(c2ccccc2)CCCC1c1ccccc1 (centres undefined),197 to 200
24,Nc1cc(Cl)nc(Cl)c1[N+](=O)[O-],136 to 138
25,CCNC(=O)C(c1ccccc1)N1CCN(c2ccc(NC(=O)c3ccccc3-c3ccc(C(F)(F)F)cc3)cc2)CC1 (centres undefined),123

row,SMILES,melting point [°C]
1,CCOC(=O)c1cnc(Nc2ccccc2OC)[nH]c1=O,217 to 219
2,CC(C)(O)c1cccc(-c2ccc3nc(-c4ccc(Cl)cc4)cn3c2)c1,166 to 168
3,COc1cccc2c(Nc3ccc(C(=O)NC4CCN(Cc5ccccc5)CC4)cc3)c(C(=O)NC3CCN(C)CC3)cnc12,230 to 232
4,COc1ccc(C2(C=O)C=CC=CC2)cc1OCCCN1CCC(c2noc3cc(F)ccc23)CC1 (centres undefined),140 to 141
5,O=C1CSC=C2c3ccccc3C=CN12,104 to 106
6,CCOC(=O)c1ccc2c(c1)ncn2-c1cc(Cl)ccc1O,> 360
7,CC(C)CCC(O)C(C)C1CC=C2C3=C(CCC21C)C1(C)CCC(OC(=O)c2ccccc2)C(C)(C)C1CC3 (centres undefined),142 to 143
8,COc1ccccc1Oc1c(NS(=O)(=O)c2c(C)noc2C)nc(-c2ncccn2)nc1OCCOC(=O)Nc1ccccn1,217 to 218
9,Cc1cc(C2=CC(C)(C)CC(C)(C)C2CO)ccc1F (centres undefined),40 to 42
10,COc1ccc2c(c1)C(=O)C(Cc1cccc(N)c1)C(C)O2 (centres undefined),110 to 112
11,CCCCN(CCCC(=O)O)C(=O)c1ccccc1,62 to 64
12,CCOC(=O)Nc1ccc2c(c1)CCSCC2=O,145 to 146
13,CCCCCCCCCCCCCCCCCCOc1ccc(C(=O)OC)c(OCCCOc2ccc(OCc3ccccc3)cc2)c1,68 to 70
14,O=Cc1ccc(-c2ccc3nc[nH]c(=O)c3c2)o1,267
15,CC(C)(c1ccccc1)c1cccc(S(=O)(=O)NC(CCCNC(=N)N)C(=O)N2CCC(CC(=O)O)CC2)c1 (centres undefined),188 to 191
16,CC[C@@H](c1ccccc1)N(Cc1ccc(C(=O)O)cc1)S(=O)(=O)c1ccc(C(=O)O)cc1,102 to 104
17,CN(C)Cc1cnc2n1-c1ccc(Br)cc1C(c1ccccn1)=NC2,200 to 202
18,Fc1ccc(N2CC3CCC2CN3Cc2ccccc2)cc1 (centres undefined),74 to 76
19,Cc1cccc(C)c1NC(=O)CCS(=O)c1cc(C(C)(C)C)c(O)c(C(C)(C)C)c1 (centres undefined),162 to 164
20,Cc1ccc(C(=O)O)c(NC(=O)CCCCNC(=O)OC(C)(C)C)c1,212
21,O=CC(CC(=O)c1ccc(F)cc1)c1ccccc1 (centres undefined),192 to 194
22,CCCCc1nc2c(N)nc3ccccc3c2n1CCCC(C)=NOC,157 to 159
23,CCCCn1c(C)c(C(=O)c2ccccc2C(=O)O)c2ccccc21,88 to 92
24,O=C(O)CCCc1cc2nc(Cl)ccc2n1S(=O)(=O)c1cccc(Cl)c1,174
25,COC(=O)c1ccc(C2=N[C@H]3CCCC[C@H]3c3cc(OC)c(OC)cc32)cc1 (racemic),122

row,SMILES,melting point [°C]
1,CC(C)c1cc(O)cc(C(C)C)c1NC(=O)CN1CCN(CCCSc2nc3ccccc3o2)CC1,201 to 203
2,O=S(=O)(NCCc1ccc(C(O)CCCO)cc1)c1ccc(Br)cc1 (centres undefined),107 to 108
3,CCOC(=O)/C=C/S(=O)(=O)c1ccc(C(C)(C)C)cc1,88 to 91
4,CCCc1nc(N)nc(N)c1N1CCN(c2ccc(C(=O)N[C@@H](CCC(=O)O)C(=O)O)cc2)CC1,280 to 284
5,Cc1ccc2c(c1)S(=O)(=O)NCN2CCF,88 to 90
6,N#Cc1ccc(-c2ccc(-c3ccc(C#N)cn3)o2)cc1,301 to 302
7,COc1cc2c(cc1OC)CN(CCCSc1ccc(NC(=O)c3cccc4c(=O)c5ccccc5[nH]c34)cc1)CC2,182
8,CN(C)C1CCC(Nc2nc3cc4c(cc3nc2-c2ccccn2)CCC4)CC1 (centres undefined),158 to 161
9,CCCCCCCCCCCCn1nnnc1C(C(=O)Nc1c(C(C)C)cccc1C(C)C)c1ccccc1 (centres undefined),113 to 115
10,O=C(Nc1ccc(-n2nc(C(F)(F)F)cc2C(F)(F)F)cc1)c1ccccc1Oc1ccccc1,108 to 109
11,Nc1c(Cl)cc(C(O)CNCCCCCC(=O)OCCc2cccc3ccccc23)cc1Cl (centres undefined),60 to 61
12,CNC(=O)N(C)c1cc(C)on1,77 to 78
13,CCCOC(=O)c1cnc(S)n1C(c1ccccc1)c1ccccc1,133
14,Cc1cc(C)c2oc(S)nc2c1C,146 to 147
15,CN1C2CCC1CN(c1ccc(C#Cc3ccc(NC(=O)c4ccccc4)cc3)nn1)C2,88 to 96
16,CC1CCCC=C1c1ccc(C(=O)N2Cc3cccn3Cc3ccccc32)cc1 (centres undefined),108 to 109
17,COCC1CN(c2ccc3ccc(N)cc3c2)C(=O)O1 (centres undefined),98 to 99
18,Cc1ccc(N2CN(c3ccccc3)C3=NN=CC3=C2Cl)cc1,177 to 179
19,Fc1cc2c(c(-c3c(Cl)cccc3Cl)c1)OC(CNC1CCC1)C2 (centres undefined),128 to 130
20,O=C(O)COc1cccc2c1CCC(Cc1nc(C(c3ccccc3)c3ccccc3)co1)C2 (centres undefined),130 to 132
21,O=S(=O)(CCCCl)Nc1cccc(COc2cccc3cccnc23)c1,142 to 143
22,CC(CC1(c2ccccc2)C=CCC=C1)N(C)C (centres undefined),87 to 90
23,COc1cc(C(=O)NC2CCN(CC(F)(F)F)CC2)ccc1Nc1ncc2c(n1)N(C1CCCCC1)CC(F)(F)C(=O)N2C,213 to 215
24,Nc1nc(-c2ccc(CCN3CCN(c4cccc5cc(F)ccc45)CC3)cc2)cs1,220 to 225
25,COc1cc2c(cc1O)C(=O)CCCC2,115 to 116

row,SMILES,melting point [°C]
1,CC(C)(C)OC(=O)N1CCC(c2nc3cc(-c4ccc(C(F)(F)F)cc4)ccc3o2)CC1,166 to 169
2,COc1cc(C(=O)NC2CCN(C)CC2)ccc1Nc1ncc2c(n1)N(C1CCCC1)CC(F)(F)C(=O)N2C,241 to 243
3,O=C1c2cccc3cccc(c23)C(=O)N1CCO,172 to 173
4,COc1cc(COc2nn(-c3ccccc3)cc2C(C[N+](=O)[O-])C[N+](=O)[O-])ccc1OCc1nc(-c2ccco2)oc1C,126 to 127
5,CCC(=O)C1OC(O)C(O)C1OCc1ccccc1Cl (centres undefined),130 to 133
6,Oc1ccccc1C=NC1=NN(c2cccc(C(F)(F)F)c2)CC1,156
7,CN1C(=O)C(F)N=C(c2ccccc2Cl)c2cc(Cl)ccc21 (centres undefined),204 to 205
8,CC(=O)n1nc(-c2ccncc2)nc1-c1ccncc1,156 to 158
9,CCOC(=O)c1cnc2ccc(CC)cc2c1O,> 260
10,Cc1ccc(-c2c(-c3ccc(S(C)(=O)=O)cc3)cnn(CC(F)(F)F)c2=O)cc1,154 to 156
11,CS(=O)(=O)c1ccc(CN2C(=O)C3(COc4cc5c(cc43)OCO5)c3ccccc32)o1 (centres undefined),177 to 179
12,O=[N+]([O-])c1ccc(-c2cccs2)cc1,124 to 126
13,O=C1Cc2c(ccc3c2OC(CNCc2ccccc2)CC3)N1 (centres undefined),128
14,CC1(C)C2C(=O)OC(C(Br)(Br)Br)C21 (centres undefined),101 to 103
15,CC(C)(C)OC(=O)N1CCCN(c2cncc(-c3cccc([N+](=O)[O-])c3)c2)CC1,129 to 130
16,c1ccc2c(c1)ncc1cncn12,175 to 179
17,Cc1ccc(NC(=O)c2ccc(C#N)cc2)cc1NC(=O)c1ccc(O)cc1,297 to 299
18,CC(O)c1cnc(C(F)(F)F)nc1 (centres undefined),43 to 45
19,CCn1c(C(C)NS(=O)(=O)c2ccc(Cl)c(Cl)c2)cnc1Oc1ccc(Cl)cc1 (centres undefined),153 to 157
20,CC(C)N(C(=O)C(Cc1ccc(C=O)cc1)NC(=O)OC(C)(C)C)C(C)C (centres undefined),152
21,COC(=O)c1cc(C23CC4CC(CC(C4)C2)C3)c(O)cc1O,167 to 169
22,CCC(=O)c1[nH]c(=O)[nH]c1CC,212 to 213
23,O=C(NNC(=O)C(F)(F)F)C(F)(F)F,173 to 175
24,Clc1ccc2c(c1)-c1[nH]ncc1CO2,175 to 176
